Experimental data as given in paper PMC4832243, “Discovery of Potent VEGFR-2 Inhibitors based on Furopyrimidine and Thienopyrimidne Scaffolds as Cancer Targeting Agents” (Scientific Reports, 2016).

Experiments:
CCRF-CEM = experiment: NCI 60 cell line panel (SRB), CCRF-CEM; type: cell-based; details: Homo sapiens, Leukemia, single dose of 10 μM, read-out: Cell Growth Percent
OVCAR-8 = experiment: NCI 60 cell line panel (SRB), OVCAR-8; type: cell-based; details: Homo sapiens; OVCAR-8, Ovarian Cancer; single dose of 10 μM; read-out: Cell Growth Percent
UACC-257 = experiment: NCI 60 cell line panel (SRB), UACC-257; type: cell-based; details: Homo sapiens; UACC-257, Melanoma; single dose of 10 μM; read-out: Cell Growth Percent
TK-10 = experiment: NCI 60 cell line panel (SRB), TK-10; type: cell-based; details: Homo sapiens; TK-10, Renal Cancer; single dose of 10 μM; read-out: Cell Growth Percent
RXF 393 = experiment: NCI 60 cell line panel (SRB), RXF 393; type: cell-based; details: Homo sapiens; RXF 393, Renal Cancer; single dose of 10 μM; read-out: Cell Growth Percent
[1] = tested on: HUVEC umbilical vein endothelial cells; experiment: In vitro HUVEC anti-proliferative assay (alamarBlue); type: cell-based; details: Homo sapiens, HUVEC proliferation at 10 μM, 72 hours
BT-549 = experiment: NCI 60 cell line panel (SRB), BT-549; type: cell-based; details: Homo sapiens; BT-549, Breast Cancer; single dose of 10 μM; read-out: Cell Growth Percent
LOX IMVI = experiment: NCI 60 cell line panel (SRB), LOX IMVI; type: cell-based; details: Homo sapiens, Melanoma, single dose of 10 μM, read-out: Cell Growth Percent
ACHN = experiment: NCI 60 cell line panel (SRB), ACHN; type: cell-based; details: Homo sapiens, Renal Cancer, single dose of 10 μM, read-out: Cell Growth Percent
NCI-H23 = experiment: NCI 60 cell line panel (SRB), NCI-H23; type: cell-based; details: Homo sapiens; NCI-H23, Non-Small Cell Lung Cancer; single dose of 10 μM; read-out: Cell Growth Percent
PC-3 = experiment: NCI 60 cell line panel (SRB), PC-3; type: cell-based; details: Homo sapiens; PC-3, Prostate Cancer; single dose of 10 μM; read-out: Cell Growth Percent
IGROV1 = experiment: NCI 60 cell line panel (SRB), IGROV1; type: cell-based; details: Homo sapiens, IGROV-1; IGROV1, Ovarian Cancer; single dose of 10 μM; read-out: Cell Growth Percent
SN12C = experiment: NCI 60 cell line panel (SRB), SN12C; type: cell-based; details: Homo sapiens, Renal Cancer, single dose of 10 μM, read-out: Cell Growth Percent
HOP-92 = experiment: NCI 60 cell line panel (SRB), HOP-92; type: cell-based; details: Homo sapiens; HOP-92, Non-Small Cell Lung Cancer; single dose of 10 μM; read-out: Cell Growth Percent
K-562 = experiment: NCI 60 cell line panel (SRB), K-562; type: cell-based; details: Homo sapiens, K562; K-562, Leukemia; single dose of 10 μM; read-out: Cell Growth Percent
UO-31 = experiment: NCI 60 cell line panel (SRB), UO-31; type: cell-based; details: Homo sapiens; UO-31, Renal Cancer; single dose of 10 μM; read-out: Cell Growth Percent
OVCAR-4 = experiment: NCI 60 cell line panel (SRB), OVCAR-4; type: cell-based; details: Homo sapiens; OVCAR-4, Ovarian Cancer; single dose of 10 μM; read-out: Cell Growth Percent
KM12 = experiment: NCI 60 cell line panel (SRB), KM12; type: cell-based; details: Homo sapiens; KM12, Colon Cancer; single dose of 10 μM; read-out: Cell Growth Percent
UACC-62 = experiment: NCI 60 cell line panel (SRB), UACC-62; type: cell-based; details: Homo sapiens; UACC-62, Melanoma; single dose of 10 μM; read-out: Cell Growth Percent
MDA-MB-468 = experiment: NCI 60 cell line panel (SRB), MDA-MB-468; type: cell-based; details: Homo sapiens; MDA-MB-468, Breast Cancer; single dose of 10 μM; read-out: Cell Growth Percent
A549/ATCC = experiment: NCI 60 cell line panel (SRB), A549/ATCC; type: cell-based; details: Homo sapiens, Non-Small Cell Lung Cancer, single dose of 10 μM, read-out: Cell Growth Percent
SF-268 = experiment: NCI 60 cell line panel (SRB), SF-268; type: cell-based; details: Homo sapiens; SF-268, CNS Cancer; single dose of 10 μM; read-out: Cell Growth Percent
T-47D = experiment: NCI 60 cell line panel (SRB), T-47D; type: cell-based; details: Homo sapiens, T47D, Breast Cancer, single dose of 10 μM, read-out: Cell Growth Percent
DU-145 = experiment: NCI 60 cell line panel (SRB), DU-145; type: cell-based; details: Homo sapiens; DU-145, Prostate Cancer; single dose of 10 μM; read-out: Cell Growth Percent
SW-620 = experiment: NCI 60 cell line panel (SRB), SW-620; type: cell-based; details: Homo sapiens; SW-620, Colon Cancer; single dose of 10 μM; read-out: Cell Growth Percent

Row | Compound | activity at 10 µM (CCRF-CEM) [%] | activity at 10 µM (OVCAR-8) [%] | activity at 10 µM (UACC-257) [%] | activity at 10 µM (TK-10) [%] | activity at 10 µM (RXF 393) [%] | activity at 10 µM (BT-549) [%] | activity at 10 µM (LOX IMVI) [%] | activity at 10 µM (ACHN) [%] | activity at 10 µM (NCI-H23) [%] | activity at 10 µM (PC-3) [%] | activity at 10 µM (IGROV1) [%] | activity at 10 µM (SN12C) [%] | activity at 10 µM (HOP-92) [%] | activity at 10 µM (K-562) [%] | activity at 10 µM (UO-31) [%] | activity at 10 µM (OVCAR-4) [%] | activity at 10 µM (KM12) [%] | activity at 10 µM (UACC-62) [%] | activity at 10 µM (MDA-MB-468) [%] | activity at 10 µM (A549/ATCC) [%] | further results
1 | O=C(Nc1ccccc1)Nc1ccc(Oc2ncnc3sc4c(c23)CCCC4)cc1 [Compound 21a] | 64.9 | 93.5 | 90.4 | 86.1 | 72 | 63.8 | 69.5 | 78.7 | 66.4 | 33.4 | 87.2 | 83.3 | 78.4 | 26.1 | 55.2 | 55.1 | 46.4 | 66.5 | 53.6 | 67.8 | activity at 10 µM ([1]; read-out: % Cell growth): 35.7%; inhibition at 10 µM ([1]; read-out: % Cell inhibition): 64.3%; activity at 10 µM (SF-268): 76.3%; activity at 10 µM (T-47D): 37.9%; activity at 10 µM (DU-145): 86.1%; activity at 10 µM (SW-620): 92%
2 | CCOC(=O)c1c(C)oc2ncnc(Nc3ccc(NC(=O)Nc4ccc(CC)cc4)cc3)c12 [Compound 15i] | 93.7 | 112 | 111 | 112 | 98.2 | 84.4 | 100 | 98.8 | 90.7 | 90.7 | 110 | 107 | 94.3 | 98 | 94.7 | 105 | 103 | 108 | 128 | 89.2 | melting point: 242 to 246 °C; activity at 10 µM (SF-268): 103%; activity at 10 µM (T-47D): 78.2%; activity at 10 µM (DU-145): 103%; activity at 10 µM (SW-620): 113%
3 | O=C(Nc1ccc(Cl)cc1)Nc1ccc(Oc2ncnc3sc4c(c23)CCCC4)cc1 [Compound 21d] | 77.9 | 94.7 | 91.4 | 88.3 | 87.7 | 112 | 84.8 | 95.4 | 87.4 | 57.6 | 108 | 86.5 | 102 | 84.2 | 71.2 | 93.6 | 69.1 | 73.2 | 103 | 66.6 | melting point: > 300 °C; activity at 10 µM (SF-268): 87%; activity at 10 µM (T-47D): 73.3%; activity at 10 µM (DU-145): 91.9%; activity at 10 µM (SW-620): 97.7%
4 | CCOC(=O)c1c(C)oc2ncnc(Nc3ccc(C(=O)NCCc4ccccc4)cc3)c12 [Compound 14e] | 80.9 | 76.6 | 79.6 | 102 | 71.7 | 67.3 | 75.2 | 88.7 | 81.8 | 59.2 | 102 | 99.3 | 61.5 | 88.9 | 97.3 | 45.5 | 89 | 94.9 | 90.7 | 56.6 | melting point: 176 to 180 °C; activity at 10 µM (SF-268): 74.1%; activity at 10 µM (T-47D): 65.1%; activity at 10 µM (DU-145): 82.1%; activity at 10 µM (SW-620): 105%
